{"source": "patent US11351142B2", "about": "“Composition and method for treating neuronal ceroid lipofuscinosis” (Rush University Medical Center, priority 2012, dated 2022)", "key": {"[1]": {"test_system": "tripeptidyl peptidase 1 (TPP1)", "test": "Double-labeling for TPP1 and β-tubulin (FIG. 11)", "type": "cell-based", "conditions": "25 μM gemfibrozil and 10 μM fenofibrate, 24 hours", "text": "(§1) DAPI was used to visualize nuclei. Results represent 3 independent experiments."}, "TPP1 [2]": {"test_system": "TPP1", "test": "Western blot and densitometric analysis of TPP1 in mouse primary astrocytes", "type": "cell-based", "method": "Astroglia were isolated from mixed glial cultures as described (17,18) according to the procedure of Giulian and Baker (19). Briefly, on day 9, the mixed glial cultures were washed three times with Dulbecco's modified Eagle's medium/F-12 and subjected to shaking at 240 rpm for 2 h at 37° C. on a rotary shaker to remove microglia. After 2 days, the shaking was repeated for 24 h for the removal of oligodendroglia and to ensure the complete removal of all nonastroglial cells. The attached cells were seeded onto new plates for further studies.\nWestern blotting was conducted as described earlier (27,28) with modifications. Briefly, cells were scraped in double-distilled H20 and sodium dodecyl sulfate (SDS), electrophoresed on NuPAGE® Novex® 4-12% Bis-Tris gels (Invitrogen) and proteins transferred onto a nitrocellulose membrane (Bio-Rad) using the Thermo-Pierce Fast Semi-Dry Blotter. The membrane was then washed for 15 min in TBS plus Tween 20 (TBST) and blocked for 1 hr in TBST containing BSA. Next, membranes were incubated overnight at 4° C. under shaking conditions with the following 1° antibodies; TPP1 (1:250, Santa Cruz), β-actin (1:800; Abcam, Cambridge, Mass. The next day, membranes were washed in TBST for 1 hr, incubated in 2° antibodies against 1° antibody hosts (all 1:10,000; Jackson ImmunoResearch) for 1 hr at room temperature, washed for one more hour and visualized under the Odyssey® Infrared Imaging System (Li-COR, Lincoln, Nebr.).\nProtein blots were analyzed using ImageJ (NIH, Bethesda, Md.) and bands were normalized to their respective β-actin loading controls. Data are representative of the average fold change with respect to control for three independent experiments."}, "Cln2 mRNA": {"test_system": "Cln2 mRNA", "test": "Cln2 mRNA expression by RT-PCR and real-time PCR in human primary astrocytes", "type": "cell-based", "procedure": "Primary human astroglia were prepared as described (20,21). […] Briefly, 11- to 17-week-old fetal brains obtained from the Human Embryology Laboratory (University of Washington, Seattle, Wash., USA) were dissociated by trituration and trypsinization. On 9th day, these mixed glial cultures were placed on a rotary shaker at 240 rpm at 37° C. for 2 h to remove loosely attached microglia. On 11th day, the flasks were shaken again at 190 rpm at 37° C. for 18 h to remove oligodendroglia. The attached cells remaining were primarily astrocytes. These cells were trypsinized and subcultured in complete media at 37° C. with 5% CO2 in air to yield more viable and healthy cells. […] Semi-quantitative RT-PCR was carried out as described earlier (24) using oligo (dT) 12-18 as primer and moloney murine leukemia virus reverse transcriptase (MMLV-RT, Invitrogen) in a 20 μl reaction mixture. The resulting cDNA was appropriately amplified using Promega Master Mix (Madison, Wis.) and the following primers (Invitrogen) for murine genes: The mRNA quantification was performed using the ABI-Prism7700 sequence detection system (Applied Biosystems, Foster City, Calif.) using iTaq™ Fast Supermix With ROX (Bio-Rad, Hercules, Calif.) and the following 6-FAM/ZEN/IBFQ-labeled primers for murine genes: Cln2 and Gapdh (Integrated DNA Technologies Coralville, Iowa). […]"}, "TPP1 [3]": {"test_system": "TPP1", "test": "TPP1 immunofluorescence of brain sections after oral gemfibrozil in WT, PPARα−/− and PPARβ−/− mice", "type": "in vivo, mouse", "conditions": "oral 7.5 mg/kg body wt/day, 21 days", "text": "After 21 days of treatment, mice were sacrificed and their brains fixed, embedded, and processed. Sections were made from different brain regions and for immunofluorescence staining on fresh frozen sections, anti-mouse TPP1 (1:200), goat anti mouse GFAP (1:100) were used. The samples were mounted and observed under Olympus BX41 fluorescence microscope (26).\nOnce we confirmed the involvement of PPARα in the fibrate mediated upregulation of TPP1 protein, we further checked whether the same results could be replicated in in vivo settings. WT, PPARα^−/− and PPARβ^−/− mice from same background were treated orally for 21 days with 7.5 mg/kg body wt/day gemfibrozil dissolved in 0.1% methylcellulose, which was also used as vehicle. At the end of the treatment, the mice were killed and different regions of their brain, viz. Substantia nigra pars compacta, cortex, hippocampus, and dentate gyrus were sectioned, and immunofluorescence was performed for the presence of TPP1."}, "TPP1 [4]": {"test_system": "TPP1", "test": "TPP1 activity assay on cell extracts of treated mouse brain cells", "type": "cell-based", "conditions": "WT astrocytes; 25 μM gemfibrozil and 10 μM fenofibrate, 24 hrs", "method": "TPP-I activity was assayed in 96-well format plates using the following modification of the method described by Vines and Warburton (6). Briefly, samples and substrate (40 μL) were mixed in individual wells of polystyrene 96-well plate (Nalge Nunc International). […] A3401; Sigma; diluted freshly from a 25 mmol/L stock solution in dimethyl sulfoxide stored at -20° C.) in 0.15 mol/L NaCl-1 g/L Triton X-100-0.1 mol/L sodium acetate, adjusted to pH 4.0 at 20° C. Plates were centrifuged briefly to dispel bubbles and placed in a 37° C. Plates were mixed for 10 s before each reading. The plates were read from the bottom using 360/20 nm excitation and 460/25 nm emission filters. Prior to the assay, the optimum substrate concentration and total protein in cell extract that can used to get best results were determined in the same manner described above, using different substrate concentrations and protein concentrations in the cell extract."}, "TPP1 [5]": {"test_system": "TPP1", "test": "Immunofluorescence for TPP1 in mouse primary neurons", "type": "cell-based", "conditions": "mouse neurons from cortex, hippocampus, and striatum; 25 μM gemfibrozil and 10 μM fenofibrate, 24 hrs", "method": "Following four 15 minute washes with filtered PBS, cells were incubated for 4-5 min with 4′, 6-diamidino-2-phenylindole (DAPI, 1:10,000; Sigma)."}, "CLN2 (−/−) mouse": {"test_system": "CLN2 (−/−) mouse", "test": "Survival (Kaplan-Meier) of CLN2 (−/−) mice", "type": "in vivo", "conditions": "oral 7.5 mg/kg body weight/day from 4 weeks of age", "text": "Treatment was started from 4 weeks of age for all groups. Methyl cellulose was used as vehicle. Top panel: Schematic representation of experiments performed. Bottom panel: Kaplan-Meier plot for percentage survival of treated vs. vehicle or untreated animals."}, "[6]": {"test_system": "CLN2 knockdown mouse astrocytes", "test": "Peroxide assay in CLN2 knockdown mouse astrocytes", "type": "cell-based", "conditions": "astrocytes transfected with CLN2 siRNA 36 hrs, gemfibrozil (25 μM) 6 hrs", "method": "Mouse astrocytes were transfected with CLN2 siRNA (1.0 μg) for 36 hrs and treated with gemfibrozil (25 μM) for 6 hrs. Cells were then harvested and subjected to peroxide assay."}, "Cln1 mRNA": {"test_system": "Cln1 mRNA", "test": "Cln1 mRNA expression by semi-quantitative RT-PCR in mouse primary astrocytes", "type": "cell-based", "conditions": "25 μM gemfibrozil, 2, 6, 12, and 24 hrs", "method": "Astroglia were isolated from mixed glial cultures as described (17,18) according to the procedure of Giulian and Baker (19). Briefly, on day 9, the mixed glial cultures were washed three times with Dulbecco's modified Eagle's medium/F-12 and subjected to shaking at 240 rpm for 2 h at 37° C. on a rotary shaker to remove microglia. After 2 days, the shaking was repeated for 24 h for the removal of oligodendroglia and to ensure the complete removal of all nonastroglial cells. The attached cells were seeded onto new plates for further studies. Total RNA was isolated from mouse primary astrocytes and human primary astrocytes using RNA-Easy Qiagen (Valencia, Calif.) kit following manufactures protocol. Semi-quantitative RT-PCR was carried out as described earlier (24) using oligo (dT) 12-18 as primer and moloney murine leukemia virus reverse transcriptase (MMLV-RT, Invitrogen) in a 20 μl reaction mixture. The resulting cDNA was appropriately amplified using Promega Master Mix (Madison, Wis.) and the following primers (Invitrogen) for murine genes: […]"}, "primary human astrocytes": {"test_system": "primary human astrocytes", "test": "LysoTracker labeling of lysosomes in primary human astrocytes", "type": "cell-based", "conditions": "25 μM gemfibrozil and 10 μM fenofibrate, 24 hrs", "text": "as §1"}}}
{"molecule": "Cc1ccc(C)c(OCCCC(C)(C)C(=O)O)c1", "note": "[gemfibrozil]", "values": [{"measurement": "lysosomal marker protein TPP1 (double-labeling)", "setting": "[1]", "result": "upregulation"}, {"measurement": "TPP1 levels (immunoblot, densitometric analysis)", "setting": "TPP1 [2]; PPARα−/− astrocytes, 24 hrs", "result": "no significant increase"}, {"measurement": "TPP1 levels (Western blot, densitometric analysis)", "setting": "TPP1 [2]; RXRα siRNA transfected astrocytes, gemfibrozil (10 μM), RA (0.5 μM) alone and in combination", "result": "almost no enhancement"}, {"measurement": "increase in Cln2 mRNA levels, maximum of time course", "setting": "Cln2 mRNA; 25 μM gemfibrozil, at 12 hrs", "result": "~10", "unit": "fold"}, {"measurement": "increase in Cln2 mRNA levels, maximum of dose response", "setting": "Cln2 mRNA; 25 uM gemfibrozil, different concentrations for 12 hrs", "result": "~15", "unit": "fold"}, {"measurement": "TPP1 in the dentate gyrus and CA1 region of the hippocampus (mostly non-neuronal cells)", "setting": "TPP1 [3]; PPARβ−/− mice", "result": "increased"}, {"measurement": "level of TPP1 in GFAP-positive astrocytes and tyrosine hydroxylase-positive neurons in the substantia nigra", "setting": "TPP1 [3]; PPARβ−/− mice", "result": "increased"}, {"measurement": "level of TPP1 in GFAP-positive cortical astrocytes and NeuN-positive cortical neurons", "setting": "TPP1 [3]; PPARβ−/− mice", "result": "markedly increased"}, {"measurement": "TPP1 in the dentate gyrus and CA1 region of the hippocampus (mostly non-neuronal cells)", "setting": "TPP1 [3]; WT mice", "result": "increased"}, {"measurement": "level of TPP1 in GFAP-positive astrocytes and tyrosine hydroxylase-positive neurons in the substantia nigra", "setting": "TPP1 [3]; WT mice", "result": "increased"}, {"measurement": "level of TPP1 in GFAP-positive cortical astrocytes and NeuN-positive cortical neurons", "setting": "TPP1 [3]; WT mice", "result": "markedly increased"}, {"measurement": "TPP1 enzymatic activity", "setting": "TPP1 [4]", "result": "drastically increased"}, {"measurement": "TPP1 (immunofluorescence)", "setting": "TPP1 [5]", "result": "significant increase"}, {"measurement": "life span (percentage survival, Kaplan-Meier)", "setting": "CLN2 (−/−) mouse", "result": "prolongs the life span"}, {"measurement": "peroxide production", "setting": "[6]", "result": "reduces peroxide production"}, {"measurement": "Cln1 mRNA expression", "setting": "Cln1 mRNA", "result": "increase within 12 to 24 h"}, {"measurement": "lysosomal proliferation (LysoTracker)", "setting": "primary human astrocytes", "result": "upregulation"}]}
